Data published in patent US20060178394A1, “Pharmaceutical compositions comprising apomorphine for pulmonary inhalation” (priority 2003, published 2006).
Entries after “also recorded” stand apart in the source; their conditions may differ. Where a name gives a salt, the structure may show the parent alone. Read-outs that look alike come from different tables or passages of the source.

What was measured:
[1] = intranasal delivery, clinical setting; Nastech studies; cited from earlier work
[2] = Phase I study: plasma pharmacokinetics of single inhaled doses (Example 15); type: in vivo, human; settings: for Tmax: median values; for Cmax: healthy male volunteers
Experimental: A phase I, double blind, randomised, placebo controlled study was conducted examining the safety, tolerability and pharmacokinetics of single 600 μg, 900 μg and 1200 μg doses in 16 healthy male volunteers. No evaluation for efficacy was conducted during the clinical study.
Pharmacokinetic plasma sampling was conducted pre-dose and at the following intervals post dose administration: 1 minute, 3 minutes, 5 minutes, 10 minutes, 15 minutes, 30 minutes, 45 minutes, 1 hour, 1.5 hours, 2 hours, 4 hours, 8 hours, 12 hours and 24 hours.
The following pharmacokinetic parameters were derived from the plasma apomorphine concentrations by non-compartmental analysis.
It should be noted that the tmax is represented as median values.

[3] = Blood analysis 70 minutes after inhalation (Example 14); type: in vivo; settings: human, inhaled, 34 patients
Experimental: For each patient, blood samples were taken 70 minutes after inhalation. The blood samples were analysed, and the blood levels for 400 and 800 microgram doses of apomorphine for each of the 34 patients that completed the test are set forth in Table 11 in nanograms per millilitre. It should be appreciated from the data discussed in Example 15 below that these blood samples were actually taken long after the plasma concentration peak.

[4] = Adverse event monitoring in the clinical study of Example 14; type: in vivo, human; settings: for All adverse events: subjects with AE, %: safety population
From the text: Adverse events were monitored during each dosing period. The proportion of patients experiencing one or more adverse events was similar in all four treatment groups. No serious adverse events were observed and no adverse event led to the premature discontinuation of any subject. All adverse events were mild or moderate in severity and occurred in a small percentage of the groups treated. Table 9 is a summary of all treatment related adverse events, and Table 10 breaks treatment-related adverse events down by body system.

[5] = Solubility of apomorphine HCl in HFA propellant systems (solution pMDI); type: physicochemical
Experimental: However, conventional solution pMDI techniques are not believed to be appropriate for the delivery of apomorphine or its pharmaceutically acceptable salts with HFA propellants. Specifically, apomorphine base is too unstable to be formulated using current approaches and apomorphine salts are too polar to be formulated as solutions in HFA propellants. […] Even with such a system, a solution concentration of <25 μg/dose is achieved, which is well below the effective doses described above in connection with Dry Powder Inhalers.

[6] = Drug retention and degradation in PE and PVC blisters
[7] = test system: patients (quality of erection in response to VSS); assay: Clinical study (Example 14): erection response to visual sexual stimulation after DPI inhalation; type: in vivo, human; settings: for Number of patients with quality grade 0, No effect / Number of patients with quality grade 1, Some tumescence, no rigidity / Number of patients with quality grade 2, Some tumescence and rigidity / Number of patients with quality grade 3, Partial erection / Number of patients with quality grade 4, Full erection: ITT; for Effective? / Responding (subjects with grade 3 or 4 erection) / Response rate: ITT population; for Duration, Mean: 60 min test period
Experimental: During each treatment, a patient was administered the given dose and was left alone to watch an hour of visual sexual stimulation (VSS). […] After 60 minutes, the patient's were asked to rate the quality and duration of their response to VSS. In this regard, the quality of response is defined as one of […]: 0: no effect; 1: some tumescence, no rigidity; 2: some tumescence, some rigidity, but not suitable for penetration; 3: rigidity and tumescence that would enable penetration but is not complete erection; 4: complete erection.
This study was conducted in a double blind fashion, where both the healthcare professional administering the treatment and the patient were not informed as to the actual dose being administered. The patients who participated in this study were randomised.
The primary measure of efficacy, as defined in the protocol, was the proportion of subjects reporting a grade 3 or 4 erection, using general criteria defined in the International Index of Erectile Function (IIEF). Grade 3 and 4 erections are regarded as “sufficient for successful intercourse”.

[8] = male, human, plasma, inhaled or intranasal, 600 ug, 600 μg single inhaled dose, mean ± standard error
[9] = male, human, plasma, inhaled or intranasal, 900 ug, 900 μg single inhaled dose, mean ± standard error
[10] = male, human, plasma, inhaled or intranasal, 1200 ug, 1200 μg single inhaled dose, mean ± standard error
[11] = 200 μg inhaled, grade 3 and 4 responders
[12] = 400 μg inhaled, listed as apomorphine HCl, hydrochloride
[13] = 400 μg inhaled, grade 3 and 4 responders
[14] = 800 μg inhaled, listed as apomorphine HCl, hydrochloride

AUC0-∞ ([2]; 600 μg single inhaled dose, mean ± standard error): 176.4 ± 26.9 ng·min/mL | Tmax ([2]; 900 μg single inhaled dose, hydrochloride): 1 min | Tmax ([2]; 1200 μg single inhaled dose, hydrochloride): 1 min | Dose proportionality for Cmax, AUC0-∞ and AUC0-t ([2]; 600, 900, 1200 μg inhaled): demonstrated | AUC(0-inf) ([2]; male, human, plasma, inhaled or intranasal, 600 ug, 600 μg inhaled, comparison table with Uprima): 2.2 ng·h/mL | Cmax [2, 8]: 3.5 to 4.9 ng/mL | AUC(0-t) [2, 8]: 2.23 ng·h/mL | Tmax ([2]; male, human, plasma, inhaled or intranasal, 600 ug, 600 μg single inhaled dose, read-out: tmax (converted)): 3 min | AUC(0-inf) ([2]; male, human, plasma, inhaled or intranasal, 900 ug, 900 μg inhaled, comparison table with Uprima): 3.4 ng·h/mL | Cmax [2, 9]: 7.4 to 8.8 ng/mL | AUC(0-inf) [2, 9]: 3.84 ng·h/mL | AUC(0-t) [2, 9]: 3.42 ng·h/mL | Tmax ([2]; male, human, plasma, inhaled or intranasal, 900 ug, 900 μg single inhaled dose, read-out: tmax (converted)): 1 min | AUC(0-inf) ([2]; male, human, plasma, inhaled or intranasal, 1200 ug, 1200 μg inhaled, comparison table with Uprima): 5.5 ng·h/mL | Cmax [2, 10]: 9.2 to 16.2 ng/mL | AUC(0-inf) [2, 10]: 5.5 ng·h/mL | AUC(0-t) [2, 10]: 4.93 ng·h/mL | Tmax ([2]; male, human, plasma, inhaled or intranasal, 1200 ug, 1200 μg single inhaled dose, read-out: tmax (converted)): 1 min | concentration at 70 min ([3]; 400 μg, 400 μg inhaled, read-out: Blood level 70 minutes after dosing, Mean): 0.215 ng/mL | concentration at 70 min ([3]; 400 μg, 400 μg inhaled, read-out: Blood level 70 minutes after dosing, Median): 0.217 ng/mL | concentration at 70 min ([3]; 800 μg, 800 μg inhaled, read-out: Blood level 70 minutes after dosing, Mean): 0.608 ng/mL | concentration at 70 min ([3]; 800 μg, 800 μg inhaled, read-out: Blood level 70 minutes after dosing, Median): 0.567 ng/mL | Ethanol required for suitable or acceptable solubility ([5]; HFA propellant solution pMDI systems): at least 50% | Solution concentration achieved ([5]; HFA propellant system with at least 50% ethanol): < 25 μg/dose | Mean drug retention, PE blisters ([6]; DUSA): 43.6 µg | Mean drug retention, PVC blisters ([6]; DUSA): 12.9 µg | Mean drug retention, PE blisters ([6]; Initial stability): 44.7 µg | Mean drug retention, PVC blisters ([6]; Initial stability): 13.9 µg
Compound: CN1CCc2cccc3c2[C@H]1Cc1ccc(O)c(O)c1-3 [Apomorphine HCl, apomorphine hydrochloride]
Dose that can be administered without causing unacceptable side effects [1]: more than 2 mg | Treatment-related AE: Cough, % ([4]; 200 μg inhaled): 3% | Treatment-related AE: Dizziness, % ([4]; 200 μg inhaled): 3% | Treatment-related AE: Nasal congestion, % ([4]; 200 μg inhaled): 3% | Treatment-related AE: Nervous system disorders, % ([4]; 200 μg inhaled): 3% | Treatment-related AE: Respiratory, thoracic & mediastinal disorders, % ([4]; 200 μg inhaled): 3% | Treatment-related AE: Sneezing, % ([4]; 200 μg inhaled): 3% | Treatment-related adverse events: subjects with AE, % ([4]; 200 μg inhaled): 6% | All adverse events: subjects with AE, % ([4]; 200 μg inhaled): 9% | Treatment-related AE: Dry throat, % ([4]; 400 μg inhaled): 3% | Treatment-related AE: Pharyngolaryngeal pain, % ([4]; 400 μg inhaled): 6% | Treatment-related AE: Respiratory, thoracic & mediastinal disorders, % ([4]; 400 μg inhaled): 9% | Treatment-related adverse events: subjects with AE, % ([4]; 400 μg inhaled): 9% | All adverse events: subjects with AE, % ([4]; 400 μg inhaled): 9% | Treatment-related AE: Dizziness, % ([4]; 800 μg inhaled): 6% | Treatment-related AE: Gastrointestinal disorders, % ([4]; 800 μg inhaled): 3% | Treatment-related AE: Nausea, % ([4]; 800 μg inhaled): 3% | Treatment-related AE: Nervous system disorders, % ([4]; 800 μg inhaled): 6% | Treatment-related adverse events: subjects with AE, % ([4]; 800 μg inhaled): 6% | All adverse events: subjects with AE, % ([4]; 800 μg inhaled, hydrochloride): 6% | Chemical stability in the presence of polyethylene (PE blisters) ([6]; initial stability data, related substance peaks after 1 month, hydrochloride): chemically degrades; also recorded: degradation of the formulated product takes place | Duration ([7]; 200 μg inhaled): 24 min | Duration, Max ([7]; 200 μg inhaled): 47 min | Duration, Median ([7]; 200 μg inhaled): 31.5 min | Onset of an erection in one patient ([7]; 200 μg inhaled, FIG. 12): about 40 minutes | Number of patients with quality grade 0, No effect ([7]; 200 μg inhaled): 11 | Number of patients with quality grade 1, Some tumescence, no rigidity ([7]; 200 μg inhaled): 10 | Number of patients with quality grade 2, Some tumescence and rigidity ([7]; 200 μg inhaled): 6 | Number of patients with quality grade 3, Partial erection ([7]; 200 μg inhaled): 6 | Number of patients with quality grade 4, Full erection ([7]; 200 μg inhaled): 2 | Effective? ([7]; 200 μg inhaled): No | Responding (subjects with grade 3 or 4 erection) ([7]; 200 μg inhaled, 35 evaluated): 8 | Response rate ([7]; 200 μg inhaled, hydrochloride): 22.9% | Duration, Mean ([7]; 200 μg inhaled, N 8): 33.3 min | Onset, Max [7, 11]: 20 min post dose | Onset, Min [7, 11]: 8 min post dose | Onset, Mean ([7]; 200 μg inhaled, grade 3 and 4 responders, N 8): 13 min post dose | Duration ([7]; 400 μg inhaled): 4 min | Duration, Max ([7]; 400 μg inhaled): 54 min | Duration, Median ([7]; 400 μg inhaled): 38 min | Onset of an erection in one patient ([7]; 400 μg inhaled, FIG. 13): about 3 minutes | Number of patients with quality grade 0, No effect ([7]; 400 μg inhaled): 8 | Number of patients with quality grade 1, Some tumescence, no rigidity ([7]; 400 μg inhaled): 6 | Number of patients with quality grade 2, Some tumescence and rigidity ([7]; 400 μg inhaled): 3 | Number of patients with quality grade 3, Partial erection ([7]; 400 μg inhaled): 8 | Number of patients with quality grade 4, Full erection ([7]; 400 μg inhaled): 8 | Responding (subjects with grade 3 or 4 erection) ([7]; 400 μg inhaled, 33 evaluated): 16 | Effective? ([7]; 400 μg inhaled, listed as apomorphine HCL, hydrochloride): effective | Effective? [7, 12]: effective and Yes | Response rate [7, 12]: 48.5% | Duration, Mean ([7]; 400 μg inhaled, N 16): 31.1 min | Onset, Max [7, 13]: 28 min post dose | Onset, Median [7, 13]: 8 min post dose | Onset, Mean ([7]; 400 μg inhaled, grade 3 and 4 responders, N 16): 11 min post dose | Onset, Min ([7]; 400 μg inhaled, grade 3 and 4 responders, hydrochloride): 3 min post dose | Duration ([7]; 800 μg inhaled): 6 min | Duration, Max ([7]; 800 μg inhaled): 54 min | Duration, Median ([7]; 800 μg inhaled): 36 min | Onset of an erection in one patient ([7]; 800 μg inhaled, FIG. 14): about 4 minutes | Number of patients with quality grade 1, Some tumescence, no rigidity ([7]; 800 μg inhaled): 3 | Number of patients with quality grade 2, Some tumescence and rigidity ([7]; 800 μg inhaled): 7 | Number of patients with quality grade 3, Partial erection ([7]; 800 μg inhaled): 6 | Number of patients with quality grade 4, Full erection ([7]; 800 μg inhaled): 14 | Responding (subjects with grade 3 or 4 erection) ([7]; 800 μg inhaled, 34 evaluated): 20 | Effective? ([7]; 800 μg inhaled, listed as apomorphine HCL, hydrochloride): effective | Effective? [7, 14]: effective and Yes | Response rate [7, 14]: 58.8% | Duration, Mean ([7]; 800 μg inhaled, N 19): 31.2 min | Onset, Max ([7]; 800 μg inhaled, grade 3 and 4 responders): 17 min post dose | Onset, Mean ([7]; 800 μg inhaled, grade 3 and 4 responders, N 19): 10 min post dose | Onset, Min ([7]; 800 μg inhaled, grade 3 and 4 responders, hydrochloride): 3 min post dose | Lowest inhaled dose at which the clinical effect is observed ([7]; pulmonary inhalation): 400 µg
